Experimental data: ChEMBL document CHEMBL1129852, “Peptidyl -keto thiazole as potent thrombin inhibitors” (Bioorg Med Chem Lett, 1997)

Tests used:
Serine protease 1 = target: T1, Serine protease 1 (Bos taurus, UniProt P00760); experiment: Inhibition of trypsin
T1 sequence (P00760 whole entry): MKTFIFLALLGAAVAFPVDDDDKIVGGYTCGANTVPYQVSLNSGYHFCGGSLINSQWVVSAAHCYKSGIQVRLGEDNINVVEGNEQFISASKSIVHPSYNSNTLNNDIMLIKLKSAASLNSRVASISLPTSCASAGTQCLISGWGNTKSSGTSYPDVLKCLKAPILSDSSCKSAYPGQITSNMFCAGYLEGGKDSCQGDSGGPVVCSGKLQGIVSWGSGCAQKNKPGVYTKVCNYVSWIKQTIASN

[1] = Relative inhibition of trypsin and thrombin; design: reference not given here
Prothrombin = Prothrombin (Homo sapiens, UniProt P00734); experiment: Inhibition of thrombin
[2] = The compound was tested for the inhibitory activity against elastase enzyme; type: functional; conditions: Homo sapiens
Prolyl endopeptidase = Prolyl endopeptidase (Sus scrofa, UniProt P23687); experiment: The compound was tested for the inhibitory activity against prolyl endo peptidase(PEP) enzyme
Sequence of Prolyl endopeptidase (P23687 whole entry): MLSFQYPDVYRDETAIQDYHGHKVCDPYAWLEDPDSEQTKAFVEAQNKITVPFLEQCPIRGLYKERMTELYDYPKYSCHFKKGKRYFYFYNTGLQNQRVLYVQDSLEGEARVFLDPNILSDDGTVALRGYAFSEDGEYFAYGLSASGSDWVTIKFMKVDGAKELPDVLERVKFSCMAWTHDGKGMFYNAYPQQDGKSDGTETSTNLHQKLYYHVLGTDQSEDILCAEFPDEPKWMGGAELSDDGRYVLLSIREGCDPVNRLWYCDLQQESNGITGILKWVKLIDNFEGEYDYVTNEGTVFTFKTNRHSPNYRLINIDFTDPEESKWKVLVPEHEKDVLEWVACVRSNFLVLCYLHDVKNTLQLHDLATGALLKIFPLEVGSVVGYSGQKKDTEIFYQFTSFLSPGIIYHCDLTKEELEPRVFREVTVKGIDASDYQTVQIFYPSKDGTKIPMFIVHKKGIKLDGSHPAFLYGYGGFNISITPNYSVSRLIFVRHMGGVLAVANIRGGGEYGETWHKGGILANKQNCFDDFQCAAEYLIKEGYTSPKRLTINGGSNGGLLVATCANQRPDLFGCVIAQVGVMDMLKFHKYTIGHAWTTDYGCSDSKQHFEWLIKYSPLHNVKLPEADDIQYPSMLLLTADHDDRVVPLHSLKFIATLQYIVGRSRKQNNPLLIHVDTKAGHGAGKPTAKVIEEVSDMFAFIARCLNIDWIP

Structure (SMILES) | IC50 (Serine protease 1) | Ratio [1] | IC50 (Prothrombin) | IC50 [2] | IC50 (Prolyl endopeptidase)
NC(N)=NCCC[C@H](NC(=O)[C@@H]1CCCN1C(=O)[C@H](N)Cc1ccccc1)C(=O)c1nccs1 | 0.0042 µM | 2.8 | 0.0015 µM |  | 
N=C(N)NCCC[C@@H](NC(=O)[C@@H]1CCCN1C(=O)[C@@H](Cc1ccccc1)NC(=O)OCc1ccccc1)C(=O)c1nccs1 | 0.0016 µM | 0.8 | 0.002 µM |  | 
N=C(N)NCCC[C@H](NC(=O)[C@@H]1CCCN1C(=O)CCCc1ccccc1)C(=O)c1nccs1 | 0.23 µM |  | 2 µM | > 1000 µM | 28 µM
N=C(N)NCCC[C@@H](NC(=O)[C@@H]1CCCCN1C(=O)[C@H](N)Cc1ccccc1)C(=O)c1nccs1 |  |  | 0.73 µM |  | 
C[C@H](NC(=O)[C@@H]1CCCN1C(=O)CCCc1ccccc1)C(=O)c1nccs1 | > 1000 µM |  | > 1000 µM | > 1000 µM | 0.005 µM
CC(C)[C@@H](NC(=O)[C@H](N)Cc1ccccc1)C(=O)N[C@@H](CCCNC(=N)N)C(=O)c1nccs1 | 0.18 µM |  | 0.0086 µM |  | 
CC(C)[C@H](NC(=O)[C@@H]1CCCN1C(=O)CCCc1ccccc1)C(=O)c1nccs1 | > 1000 µM |  | > 1000 µM | > 1000 µM | 7.7 µM
CC(=O)N[C@H](Cc1ccccc1)C(=O)N1CCC[C@H]1C(=O)N[C@H](CCCNC(=N)N)C(=O)c1nccs1 | 0.23 µM |  | 2.3 µM |  | 
O=C(c1nccs1)[C@H]1CCCN1C(=O)[C@@H]1CCCN1C(=O)CCCc1ccccc1 | > 1000 µM |  | > 1000 µM | > 1000 µM | 0.0044 µM

More lines, main results first:

IC50 (Serine protease 1) | Ratio [1] | IC50 (Prothrombin) | Structure (SMILES) | IC50 [2] | IC50 (Prolyl endopeptidase)
0.23 µM | 0.3 | 0.82 µM | N=C(N)NCCC[C@@H](NC(=O)[C@@H]1CCCN1C(=O)CCc1ccccc1)C(=O)c1nccs1 |  | 
2.4 µM |  | 46 µM | NCCCC[C@H](NC(=O)[C@@H]1CCCN1C(=O)CCCc1ccccc1)C(=O)c1nccs1 |  | 7.8 µM
 | 0.1 |  | CC(=O)N[C@H](Cc1ccccc1)C(=O)N1CCC[C@H]1C(=O)N[C@H](CCCN=C(N)N)C(=O)c1nccs1 |  | 
41 µM |  |  | N=C(N)NCCC[C@H](NC(=O)[C@@H]1CCCCN1C(=O)[C@H](N)Cc1ccccc1)C(=O)c1nccs1 |  | 
0.009 µM |  | 0.003 µM | N=C(N)NCCC[C@H](NC(=O)[C@@H]1CCN1C(=O)[C@H](N)Cc1ccccc1)C(=O)c1nccs1 |  | 
 | 56 |  | NC(N)=NCCC[C@@H](NC(=O)[C@@H]1CCCCN1C(=O)[C@H](N)Cc1ccccc1)C(=O)c1nccs1 |  | 
1.2 µM | 4.6 | 0.26 µM | NCCCC[C@H](NC(=O)[C@@H]1CCCN1C(=O)[C@H](N)Cc1ccccc1)C(=O)c1nccs1 |  | 
 | 21 |  | CC(C)[C@@H](NC(=O)[C@H](N)Cc1ccccc1)C(=O)N[C@@H](CCCN=C(N)N)C(=O)c1nccs1 |  | 
16 µM | 1.1 | 14 µM | NCCCCC[C@H](NC(=O)[C@@H]1CCCN1C(=O)[C@H](N)Cc1ccccc1)C(=O)c1nccs1 |  | 
 | 3 |  | NC(N)=NCCC[C@H](NC(=O)[C@@H]1CCN1C(=O)[C@H](N)Cc1ccccc1)C(=O)c1nccs1 |  | 
